{"source": "patent US9162992B2", "about": "“Compounds and compositions for treatment of breathing control disorders or diseases” (GALLEON PHARMACEUTICALS, INC., priority 2010, dated 2015)", "key": {"[1]": {"assay": "Solubility as a function of pH (100 mM citric acid, room temperature)", "type": "physicochemical", "conditions": "for solubility / solubility thermodynamic: thermodynamic from solid; for solubility thermodynamic: 100 mM citric acid buffer, read-out: (XXXVI) concentration; for (XXXVI) concentration: not saturated", "protocol": "A solution of (XXXVI) of concentration ˜[…] in 100 mM citric acid at pH 2.5 was prepared. About 150 μL aliquots of this solution were transferred into 6 separate glass HPLC vials. Each aliquot was titrated with 6N sodium hydroxide to different pH values in the range 3-5.5 (Table 12A). All the samples, including the solution at pH 2.5, were shaken overnight at room temperature using a gyratory shaker. After shaking, the samples were evaluated visually for the presence of precipitate and were then spin filtered through 0.45 μm syringe tip filters (4 mm diameter) at 3,000 rpm for 20 min. The final pH values of the filtrates were measured. The filtrates were then diluted appropriately and analyzed for (XXXV) concentration using the HPLC assay.\nThis equation is a simplified representation of solubility equilibrium for weak bases that assumes that total solubility is much larger than the solubility of the free base in the pH range of interest: log S=log S0+log(1+10^pKa-pH) Equation 1 where, ‘S’ is total solubility; ‘S0’ is the solubility of the free base."}, "[2]": {"assay": "Solubility in solvents and IV solutions", "type": "physicochemical", "protocol": "The solubility of (XXXXVI) and XXXV was evaluated in various solvents and IV solutions. Due to limits on the API supply at the time the study was conducted, most of the solvent systems were evaluated to a level of only 100 mg/mL even if the solution was not saturated at this level. Only in water was an attempt made to reach saturation solubility, regardless of how high that solubility might be. Solubility of the salt/free base in each solvent was evaluated in duplicate.\nFor solubility in water, drug was added with intermittent shaking to ensure that excess undissolved drug is present indicating saturation […]. The filtrates were diluted appropriately and analyzed for (XXXV) concentration by HPLC."}, "[3]": {"test_system": "opioid-induced respiratory depression", "assay": "Opioid-induced respiratory depression in the monkey", "type": "in vivo, Macaca fascicularis", "conditions": "0.20 mg/kg/min 5 min, then 0.10 mg/kg/min 10 min", "protocol": "Juvenile macaques (four-year-old Macaca fascicularis, 2 to 5 kg, n=13) were used for the study. Animal husbandry was conducted under USDA guidelines and the protocols were approved by the Institutional Animal Care and Use Committee of East Carolina University.\nAnesthesia was induced with 5% isoflurane and then maintained with 1.5 to 2% isoflurane (100% O2, 2 L/min). Antebrachial veins were cannulated. Vivometrics Lifeshirts (Ventura, Calif.) were fitted to the animals for monitoring respiratory function by inductance plethysmography. Abdomen and rib cage deflections were calibrated using the Qualitative Diagnostic Calibration (QDC) procedure, and tidal volume was normalized to 15 mL, which represented a typical tidal volume for these animals as previously measured using conventional techniques. Heart rate was monitored continuously by 3-lead ECG.\nETCO2 was measured via a neonatal nasal cannula connected to a microstream CO2 sensor (Cardell monitor, Model 9405). SpO2 and HR were monitored by pulse oximetry using a reflectance probe (Nelcor Max-Fast) positioned on the inner aspect of the upper arm. HR was also determined from the ECG allowing measurement when animal activity compromised the integrity of pulse oximetry signals. BP was measured in anesthetized animals using a cuff positioned on the ankle. […]"}, "pKa": {"assay": "pKa", "type": "physicochemical"}}, "note": "Several values for one entry are separate records, joined by “and”; a condition that tells them apart may be missing. Equal values may be shown once. Read-outs that look alike come from different tables or passages of the source.", "data": [{"smiles": "CCCNc1nc(NCCC)nc(N(C)OC)n1", "note": "[XXXV, N-(4,6-Bis-n-propylamino-[1,3,5]triazin-2-yl)-N,O-dimethyl-hydroxylamine]", "values": [{"measurement": "solubility", "setting": "[1]; aqueous buffer", "result": 0.18, "unit": "mg/mL"}, {"measurement": "solubility", "setting": "[1]; pH 3.16, aqueous buffer", "result": 50, "unit": "mg/mL"}, {"measurement": "solubility", "setting": "[1]; pH 3.46, aqueous buffer", "result": 25, "unit": "mg/mL"}, {"measurement": "pH dependence of solubility", "setting": "[1]; pH 3.5", "result": "solubility was high at pH 3.5 or lower"}, {"measurement": "solubility", "setting": "[1]; pH 3.86, aqueous buffer", "result": 10, "unit": "mg/mL"}, {"measurement": "solubility", "setting": "[2]; organic solvent or mixture, thermodynamic from solid, solubility", "result": "> 90", "unit": "mg/mL"}, {"measurement": "solubility", "setting": "[2]; water, thermodynamic from solid, Solubility", "result": "~0.21", "unit": "mg/mL"}]}, {"smiles": "CCCNc1nc(NCCC)nc(N(C)OC)n1.O=S(=O)(O)O", "note": "[XXXVI, N-(4,6-Bis-n-propylamino-[1,3,5]triazin-2-yl)-N,O-dimethyl-hydroxylamine hydrogen sulfate]", "values": [{"measurement": "end-tidal carbon dioxide increases caused by the opioid", "setting": "[3]", "result": "full reversal"}, {"measurement": "minute ventilation", "setting": "[3]", "result": "increased minute ventilation"}, {"measurement": "solubility thermodynamic", "setting": "[1]; aqueous buffer, target pH 4.0, final pH 3.79", "result": 20.8, "unit": "mg/mL"}, {"measurement": "solubility thermodynamic", "setting": "[1]; aqueous buffer, target pH 4.5, final pH 4.37", "result": 3.46, "unit": "mg/mL"}, {"measurement": "solubility thermodynamic", "setting": "[1]; aqueous buffer, target pH 5.0, final pH 4.52", "result": 2.73, "unit": "mg/mL"}, {"measurement": "solubility thermodynamic", "setting": "[1]; aqueous buffer, target pH 5.5, final pH 5.02", "result": 0.99, "unit": "mg/mL"}, {"measurement": "appearance afterwards Shaking", "setting": "[1]; target pH 2.5", "result": "Clear solution"}, {"measurement": "(XXXVI) concentration", "setting": "[1]; target pH 2.5, final pH 2.42", "result": 104.1}, {"measurement": "appearance afterwards Shaking", "setting": "[1]; target pH 3.0", "result": "Clear solution"}, {"measurement": "(XXXVI) concentration", "setting": "[1]; target pH 3.0, final pH 3.00", "result": 99.8}, {"measurement": "appearance afterwards Shaking", "setting": "[1]; target pH 3.5", "result": "Clear solution"}, {"measurement": "(XXXVI) concentration", "setting": "[1]; target pH 3.5, final pH 3.51", "result": 101.6}, {"measurement": "appearance afterwards Shaking", "setting": "[1]; target pH 4.0", "result": "Precipitate"}, {"measurement": "appearance afterwards Shaking", "setting": "[1]; target pH 4.5", "result": "Precipitate"}, {"measurement": "appearance afterwards Shaking", "setting": "[1]; target pH 5.0", "result": "Precipitate"}, {"measurement": "appearance afterwards Shaking", "setting": "[1]; target pH 5.5", "result": "Precipitate"}, {"measurement": "solubility", "setting": "[2]; 0.9% NaCl, listed as (XXXV) hydrogen sulfate salt, hydrogen sulfate", "result": ">201.4", "unit": "mg/mL"}, {"measurement": "solubility", "setting": "[2]; 30% PEG-400, listed as (XXXV) hydrogen sulfate salt, hydrogen sulfate", "result": ">197.0 mg/mL and >198.4 mg/mL"}, {"measurement": "solubility", "setting": "[2]; 30% Propylene Glycol, listed as (XXXV) hydrogen sulfate salt, hydrogen sulfate", "result": ">89.47", "unit": "mg/mL"}, {"measurement": "solubility", "setting": "[2]; 70% PEG-400, listed as (XXXV) hydrogen sulfate salt, hydrogen sulfate", "result": ">85.28 mg/mL and >91.43 mg/mL"}, {"measurement": "solubility", "setting": "[2]; 70% Propylene Glycol, listed as (XXXV) hydrogen sulfate salt, hydrogen sulfate", "result": ">92.43", "unit": "mg/mL"}, {"measurement": "solubility", "setting": "[2]; Acetonitrile, listed as (XXXV) hydrogen sulfate salt, hydrogen sulfate", "result": "68.5 mg/mL and 67.1 mg/mL"}, {"measurement": "solubility", "setting": "[2]; Ethanol, listed as (XXXV) hydrogen sulfate salt, hydrogen sulfate", "result": ">212.2", "unit": "mg/mL"}, {"measurement": "solubility", "setting": "[2]; Methanol, listed as (XXXV) hydrogen sulfate salt, hydrogen sulfate", "result": ">98.52", "unit": "mg/mL"}, {"measurement": "solubility", "setting": "[2]; PEG-400 (100%), listed as (XXXV) hydrogen sulfate salt, hydrogen sulfate", "result": 35.74, "unit": "mg/mL"}, {"measurement": "solubility", "setting": "[2]; Propylene Glycol (100%), listed as (XXXV) hydrogen sulfate salt, hydrogen sulfate", "result": ">94.65", "unit": "mg/mL"}, {"measurement": "solubility", "setting": "[2]; Water, listed as (XXXV) hydrogen sulfate salt, hydrogen sulfate", "result": "414.5 mg/mL and 441.5 mg/mL"}, {"measurement": "solubility", "setting": "[2]; aqueous with cosolvent or surfactant or cyclodextrin, thermodynamic from solid, 30% PEG-400, read-out: Solubility", "result": "~198", "unit": "mg/mL"}, {"measurement": "solubility", "setting": "[2]; aqueous with cosolvent or surfactant or cyclodextrin, thermodynamic from solid, 30% Propylene Glycol, read-out: Solubility", "result": "> 93.2", "unit": "mg/mL"}, {"measurement": "solubility", "setting": "[2]; aqueous with cosolvent or surfactant or cyclodextrin, thermodynamic from solid, 30% and 70% PEG-400, read-out: solubility", "result": "≥ 90", "unit": "mg/mL"}, {"measurement": "solubility", "setting": "[2]; aqueous with cosolvent or surfactant or cyclodextrin, thermodynamic from solid, 30%, 70% and 100% propylene glycol, read-out: solubility", "result": "≥ 90", "unit": "mg/mL"}, {"measurement": "solubility", "setting": "[2]; aqueous with cosolvent or surfactant or cyclodextrin, thermodynamic from solid, 70% PEG-400, read-out: Solubility", "result": "≥ 90", "unit": "mg/mL"}, {"measurement": "solubility", "setting": "[2]; aqueous with cosolvent or surfactant or cyclodextrin, thermodynamic from solid, 70% Propylene Glycol, read-out: Solubility", "result": "> 87.8", "unit": "mg/mL"}, {"measurement": "solubility", "setting": "[2]; ethanol and methanol", "result": "freely soluble"}, {"measurement": "solubility", "setting": "[2]; organic solvent or mixture, thermodynamic from solid, Acetonitrile, read-out: Solubility", "result": "~68", "unit": "mg/mL"}, {"measurement": "solubility", "setting": "[2]; organic solvent or mixture, thermodynamic from solid, Ethanol, read-out: Solubility", "result": "> 211", "unit": "mg/mL"}, {"measurement": "solubility", "setting": "[2]; organic solvent or mixture, thermodynamic from solid, Methanol, read-out: Solubility", "result": "> 109", "unit": "mg/mL"}, {"measurement": "solubility", "setting": "[2]; organic solvent or mixture, thermodynamic from solid, PEG-400 (100%), read-out: Solubility", "result": "~36", "unit": "mg/mL"}, {"measurement": "solubility", "setting": "[2]; organic solvent or mixture, thermodynamic from solid, Propylene Glycol (100%), read-out: Solubility", "result": "> 92.1", "unit": "mg/mL"}, {"measurement": "solubility", "setting": "[2]; saline or isotonic, thermodynamic from solid, 0.9% NaCl, read-out: Solubility", "result": "> 206", "unit": "mg/mL"}, {"measurement": "solubility", "setting": "[2]; saline or isotonic, thermodynamic from solid, 5% Dextrose, read-out: Solubility", "result": "> 201", "unit": "mg/mL"}, {"measurement": "solubility", "setting": "[2]; saline or isotonic, thermodynamic from solid, IV solutions (0.9% saline and 5% dextrose), read-out: solubility", "result": "≥ 200", "unit": "mg/mL"}, {"measurement": "solubility", "setting": "[2]; water, thermodynamic from solid, Water, read-out: Solubility", "result": "> 400", "unit": "mg/mL"}, {"measurement": "solubility", "setting": "[2]; water, thermodynamic from solid, water, IV solutions (0.9% saline and 5% dextrose), ethanol, methanol, 30%, 70% and 100% propylene glycol, read-out: solubility", "result": "> 90", "unit": "mg/mL"}, {"measurement": "pKa", "setting": "pKa", "result": 5.6}]}]}
